{
  "source": "paper PMC3020970",
  "about": "“K70Q Adds High-Level Tenofovir Resistance to “Q151M Complex” HIV Reverse Transcriptase through the Enhanced Discrimination Mechanism” (PLoS ONE, 2011)",
  "format_in_all_cases": "biochemical",
  "key": {"HIV-1 RT K70Q": {"molecular_target": "T1, HIV-1 RT K70Q (Human immunodeficiency virus type 1 group M subtype B, UniProt P03366, K669Q)", "T1 construct": "made in house; host or cells: Escherichia coli BL21", "assay": "Primer extension assay", "description": "(§1) RT sequences coding for the p66 and p51 subunits of BH10 were cloned in the pRT dual vector, which is derived from pCDF-2 with LIC duet minimal adaptor (Novagen), using restriction sites PpuMI and SacI for the p51 subunit, and SacII and AvrII for the p66 subunit. RT was expressed in the Escherichia coli strain BL21 (Invitrogen) and purified by nickel affinity chromatography and MonoQ anion exchange chromatography. RT concentrations were determined spectrophotometrically based on absorption at […] using a calculated extinction coefficient (261,610 M^−1 cm^−1). The active site concentration of the various RT preparations was calculated as described below.\n(§2) DNA oligomers were synthesized by Integrated DNA Technologies (Coralville, IA). An 18-nucleotide DNA primer fluorescently labeled with Cy3 at the 5′ end (P18; 5′-Cy3 GTC CCT GTT CGG GCG CCA-3′) and a 100-nucleotide DNA template (T100; 5′-TAGTGTGTGCCCGTCTGTTGTGTGACTCTGGTAACTAGAGATCCCTCAGACCCTTTTAGTCAGTGTGGAAAATCTCTAGCAGTGGCGCCCGAACAGGGAC-3′) were used in primer extension assays. An 18-nucleotide DNA primer 5′-labeled with Cy3 (P18; 5′-Cy3 GTC ACT GTT CGA GCA CCA-3′) and a 31-nucleotide DNA template (T31; 5′- CCATAGCTAGCATTGGTGCTCGAACAGTGAC-3′) were used in the ATP rescue assay and pre-steady state kinetic experiments.\n(§3) The enzyme (20 nM active sites) was incubated with 20 nM template/primer at 37°C in a buffer containing 50 mM Tris-HCl, pH 7.8 and 50 mM NaCl. The DNA synthesis was initiated by the addition of 1 µM dNTP and 10 mM MgCl2. The primer extension assays were carried out in the presence or absence of varying concentrations of TFV-DP. The reactions were terminated after 15 min by adding equal volume of 100% formamide containing traces of bromophenol blue. The extension products were resolved on a 7 M urea-15% polyacrylamide gel, and visualized by phosphor-imaging (FLA 5100, Fujifilm, Tokyo). We followed standard protocols that utilize the Multi Gauge software (Fujifilm) to quantitate primer extension, [44]. The results from dose response experiments were plotted using Prism 4 (GraphPad Software Inc., CA) and IC50 values for TFV-DP were obtained at midpoint concentrations."}, "HIV-1 RT K70Q/Q151Mc [1]": {"molecular_target": "T2, HIV-1 RT K70Q/Q151Mc (Human immunodeficiency virus type 1 group M subtype B, UniProt P03366, A661V/F676L/F715Y/K669Q/Q750M/V674I)", "T2 construct": "made in house; host or cells: Escherichia coli BL21", "assay": "Primer extension assay", "description": "as §1, §2, §3"}, "HIV-1 RT Q151Mc [2]": {"molecular_target": "T3, HIV-1 RT Q151Mc (Human immunodeficiency virus type 1 group M subtype B, UniProt P03366, A661V/F676L/F715Y/Q750M/V674I)", "T3 construct": "made in house; host or cells: Escherichia coli BL21", "assay": "Primer extension assay", "description": "as §1, §2, §3"}, "HIV-1 RT WT": {"molecular_target": "T4, HIV-1 RT WT (Human immunodeficiency virus type 1 group M subtype B, UniProt P03366)", "T4 construct": "made in house; host or cells: Escherichia coli BL21", "assay": "Pre-steady state kinetics of binding and incorporation", "description": "(§4) Determination of active site concentrations in the different preparations of WT and mutant RTs were performed using pre-steady state burst experiments. […] The reactions were quenched at various times (10 ms to 5 s) by adding EDTA to a final concentration of 50 mM. The amounts of product (P18-dAMP) were quantitated and fit to the following burst equation: [drawing 1] (1) where A is the amplitude of the burst phase that represents the RT-DNA complex at the start of the reaction, k obs is the observed burst rate constant for dNTP incorporation, k ss is the steady state rate constant, and t is the reaction time. The rate constant of the linear phase (kcat) can be estimated by dividing the slope of the linear phase by the enzyme concentration. The active site concentration and template/primer binding affinity (KD-DNA) were determined by plotting the amplitude (A) against the concentration of template/primer. The data were fit using non-linear regression to a quadratic equation: [drawing 2] (2) where KD is the dissociation constant for the RT-DNA complex, and [RT] is the concentration of active polymerase molecules. Subsequent biochemical experiments were performed using corrected active site concentrations, [43].\n(§5) HIV-1 RT (50 nM active sites) was pre-incubated with 50 nM T31/P18 in one syringe (Syringe A), whereas varying concentrations of dNTP and 10 mM MgCl2 were kept in another syringe (Syringe B). The solutions were rapidly mixed to initiate reactions, which were subsequently quenched at various times (5 ms to 10 s) by adding EDTA to a final concentration of 50 mM. The products from each quenched reaction were resolved, quantitated, and plotted as described above. The data were fit by non-linear regression to the burst equation (Eq 1).\n(§6) To obtain the dissociation constant KD-dNTP for dNTP binding to the RT-DNA complex, the observed burst rates (kobs) were fit to the hyperbolic equation (Eq. 3) using nonlinear regression: [drawing 3] (3) where kpol is the optimal rate of dNTP incorporation.\n(§7) The kinetics of TFV incorporation by the WT and mutant enzymes were carried out in a manner similar to that employed for natural dNTP substrate except the time of reactions. It was noted that the mutant enzymes required longer time to incorporate TFV compared to the WT HIV-1 RT (detailed in the Results section)."}, "HIV-1 RT K70Q/Q151Mc [3]": {"molecular_target": "T2, HIV-1 RT K70Q/Q151Mc", "assay": "Pre-steady state kinetics of binding and incorporation", "description": "as §4, §5, §6, §7"}, "HIV-1 RT Q151Mc [4]": {"molecular_target": "T3, HIV-1 RT Q151Mc", "assay": "Pre-steady state kinetics of binding and incorporation", "description": "as §4, §5, §6, §7"}, "[5]": {"details": "with 3.5 mM ATP, read-out: IC50 of TFV-DP, with ATP"}, "[6]": {"details": "without ATP, read-out: IC50 of TFV-DP, without ATP"}},
  "note": "“And” between values parts separate entries of the source, which are not always exact repeats. Identical values can stand only once. Like-named read-outs stand apart in the source and are kept apart here.",
  "data": [
    {"smiles": "CC(Cn1cnc2c(N)ncnc21)OCP(=O)(O)OP(=O)(O)OP(=O)(O)O", "note": "(stereo in doubt) [TFV-DP, tenofovir-diphosphate]", "values": [
      {"measurement": "Excision enhancement due to ATP (IC50 with ATP/IC50 without ATP)", "setting": "HIV-1 RT K70Q", "value": 2.9, "unit": "fold"},
      {"measurement": "IC50", "setting": "HIV-1 RT K70Q; [5]", "value": "2310 ± 270", "unit": "nM"},
      {"measurement": "Fold increase in IC50 vs WT RT, with ATP", "setting": "HIV-1 RT K70Q; with ATP", "value": "(1.2) fold"},
      {"measurement": "Fold increase in IC50 vs WT RT, without ATP", "setting": "HIV-1 RT K70Q; without ATP", "value": "(1.3) fold"},
      {"measurement": "IC50", "setting": "HIV-1 RT K70Q; [6]", "value": "802 ± 99", "unit": "nM"},
      {"measurement": "Excision enhancement due to ATP (IC50 with ATP/IC50 without ATP)", "setting": "HIV-1 RT K70Q/Q151Mc [1]", "value": 2.9, "unit": "fold"},
      {"measurement": "IC50", "setting": "HIV-1 RT K70Q/Q151Mc [1]; [5]", "value": "7000 ± 226", "unit": "nM"},
      {"measurement": "Fold increase in IC50 vs WT RT, with ATP", "setting": "HIV-1 RT K70Q/Q151Mc [1]; with ATP", "value": "(3.8) fold"},
      {"measurement": "Fold increase in IC50 vs WT RT, without ATP", "setting": "HIV-1 RT K70Q/Q151Mc [1]; without ATP", "value": "(3.7) fold"},
      {"measurement": "IC50", "setting": "HIV-1 RT K70Q/Q151Mc [1]; [6]", "value": "2390 ± 353", "unit": "nM"},
      {"measurement": "Excision enhancement due to ATP (IC50 with ATP/IC50 without ATP)", "setting": "HIV-1 RT Q151Mc [2]", "value": 2.7, "unit": "fold"},
      {"measurement": "IC50", "setting": "HIV-1 RT Q151Mc [2]; [5]", "value": "4000 ± 341", "unit": "nM"},
      {"measurement": "Fold increase in IC50 vs WT RT, with ATP", "setting": "HIV-1 RT Q151Mc [2]; with ATP", "value": "(2.1) fold"},
      {"measurement": "Fold increase in IC50 vs WT RT, without ATP", "setting": "HIV-1 RT Q151Mc [2]; without ATP", "value": "(2.3) fold"},
      {"measurement": "IC50", "setting": "HIV-1 RT Q151Mc [2]; [6]", "value": "1500 ± 90", "unit": "nM"},
      {"measurement": "Selectivity (k pol/Kd)dATP/(k pol/Kd)TFV-DP", "setting": "HIV-1 RT WT", "value": 1.6},
      {"measurement": "k pol/Kd", "setting": "HIV-1 RT WT", "value": "1.47e+06 M⁻¹ s⁻¹ and 1.47e+06 ± 70000 M⁻¹ s⁻¹"},
      {"measurement": "k pol", "setting": "HIV-1 RT WT; T31/P18, 37°C", "value": "2.8 s⁻¹ and 2.8 ± 0.08 s⁻¹"},
      {"measurement": "Kd", "setting": "HIV-1 RT WT; binding to RT-DNA complex", "value": "1900 ± 200", "unit": "nM"},
      {"measurement": "Selectivity (k pol/Kd)dATP/(k pol/Kd)TFV-DP", "setting": "HIV-1 RT K70Q/Q151Mc [3]; K70Q/Q151Mc RT", "value": 26.3},
      {"measurement": "k pol/Kd", "setting": "HIV-1 RT K70Q/Q151Mc [3]; K70Q/Q151Mc RT", "value": "110000 M⁻¹ s⁻¹ and 110000 ± 30000 M⁻¹ s⁻¹"},
      {"measurement": "Reduced affinity for TFV than the WT enzyme", "setting": "HIV-1 RT K70Q/Q151Mc [3]; K70Q/Q151Mc RT vs WT RT", "value": "more than 4.5 fold"},
      {"measurement": "k pol", "setting": "HIV-1 RT K70Q/Q151Mc [3]; K70Q/Q151Mc RT, T31/P18, 37°C", "value": "1.0 ± 0.03", "unit": "s⁻¹"},
      {"measurement": "Kd", "setting": "HIV-1 RT K70Q/Q151Mc [3]; K70Q/Q151Mc RT, binding to RT-DNA complex", "value": "8900 ± 2100", "unit": "nM"},
      {"measurement": "Selectivity (k pol/Kd)dATP/(k pol/Kd)TFV-DP", "setting": "HIV-1 RT Q151Mc [4]", "value": 11},
      {"measurement": "k pol/Kd", "setting": "HIV-1 RT Q151Mc [4]", "value": "300000 M⁻¹ s⁻¹ and 300000 ± 60000 M⁻¹ s⁻¹"},
      {"measurement": "k pol", "setting": "HIV-1 RT Q151Mc [4]; T31/P18, 37°C", "value": "1.3 ± 0.03", "unit": "s⁻¹"},
      {"measurement": "Kd", "setting": "HIV-1 RT Q151Mc [4]; binding to RT-DNA complex", "value": "4300 ± 800", "unit": "nM"}
    ]}
  ]
}
